What all share (format): biochemical
Common to all, as to conditions: ATP 100 μM

The target in assay [1] is JAK1 (Homo sapiens (Human), UniProt P23458). Briefly: Enzyme assay (Assay Example^a 1), JAK1.
In assay [2] the target is Tyk2 (Homo sapiens (Human), UniProt P29597). The experiment in a line: Enzyme assay (Assay Example^a 1), Tyk2.
For assay [3], the target named is JAK2 (Homo sapiens (Human), UniProt O60674). Briefly: Enzyme assay (Assay Example^a 1), JAK2.
Assay [4] addresses JAK3 (Homo sapiens (Human), UniProt P52333). The experiment in a line: Enzyme assay (Assay Example^a 1), JAK3.

Chain of Tyk2 (P29597 whole entry): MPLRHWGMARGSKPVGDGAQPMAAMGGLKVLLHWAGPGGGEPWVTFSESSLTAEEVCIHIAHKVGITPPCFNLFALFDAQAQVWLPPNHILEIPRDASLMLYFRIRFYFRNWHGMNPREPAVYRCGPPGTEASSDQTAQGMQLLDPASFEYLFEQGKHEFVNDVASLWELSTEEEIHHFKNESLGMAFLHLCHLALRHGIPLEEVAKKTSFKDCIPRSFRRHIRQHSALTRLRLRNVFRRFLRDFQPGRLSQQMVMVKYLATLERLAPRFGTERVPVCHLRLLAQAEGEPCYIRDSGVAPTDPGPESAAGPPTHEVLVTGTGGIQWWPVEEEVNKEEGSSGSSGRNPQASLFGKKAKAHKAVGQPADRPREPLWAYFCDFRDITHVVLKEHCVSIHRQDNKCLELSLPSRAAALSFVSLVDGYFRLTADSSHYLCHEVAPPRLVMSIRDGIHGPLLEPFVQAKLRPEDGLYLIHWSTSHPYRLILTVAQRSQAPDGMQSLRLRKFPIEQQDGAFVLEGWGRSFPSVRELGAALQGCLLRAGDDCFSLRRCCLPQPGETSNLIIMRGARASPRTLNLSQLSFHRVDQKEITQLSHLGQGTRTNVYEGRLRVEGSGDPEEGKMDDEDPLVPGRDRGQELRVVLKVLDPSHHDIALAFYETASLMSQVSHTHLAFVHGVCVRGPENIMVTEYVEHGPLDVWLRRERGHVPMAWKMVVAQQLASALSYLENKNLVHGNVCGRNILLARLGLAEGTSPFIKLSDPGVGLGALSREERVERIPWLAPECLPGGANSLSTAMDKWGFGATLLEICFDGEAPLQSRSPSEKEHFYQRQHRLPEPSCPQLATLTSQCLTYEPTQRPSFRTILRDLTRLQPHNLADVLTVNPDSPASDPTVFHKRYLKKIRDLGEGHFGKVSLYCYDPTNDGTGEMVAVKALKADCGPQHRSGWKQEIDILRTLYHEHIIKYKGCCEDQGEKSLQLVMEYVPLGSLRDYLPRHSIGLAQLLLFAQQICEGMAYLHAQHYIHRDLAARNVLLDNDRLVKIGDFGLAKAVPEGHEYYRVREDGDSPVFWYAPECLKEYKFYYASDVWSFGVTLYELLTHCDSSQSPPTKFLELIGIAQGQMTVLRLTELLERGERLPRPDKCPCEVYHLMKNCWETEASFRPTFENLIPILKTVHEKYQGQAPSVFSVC
Chain of JAK3 (P52333 whole entry): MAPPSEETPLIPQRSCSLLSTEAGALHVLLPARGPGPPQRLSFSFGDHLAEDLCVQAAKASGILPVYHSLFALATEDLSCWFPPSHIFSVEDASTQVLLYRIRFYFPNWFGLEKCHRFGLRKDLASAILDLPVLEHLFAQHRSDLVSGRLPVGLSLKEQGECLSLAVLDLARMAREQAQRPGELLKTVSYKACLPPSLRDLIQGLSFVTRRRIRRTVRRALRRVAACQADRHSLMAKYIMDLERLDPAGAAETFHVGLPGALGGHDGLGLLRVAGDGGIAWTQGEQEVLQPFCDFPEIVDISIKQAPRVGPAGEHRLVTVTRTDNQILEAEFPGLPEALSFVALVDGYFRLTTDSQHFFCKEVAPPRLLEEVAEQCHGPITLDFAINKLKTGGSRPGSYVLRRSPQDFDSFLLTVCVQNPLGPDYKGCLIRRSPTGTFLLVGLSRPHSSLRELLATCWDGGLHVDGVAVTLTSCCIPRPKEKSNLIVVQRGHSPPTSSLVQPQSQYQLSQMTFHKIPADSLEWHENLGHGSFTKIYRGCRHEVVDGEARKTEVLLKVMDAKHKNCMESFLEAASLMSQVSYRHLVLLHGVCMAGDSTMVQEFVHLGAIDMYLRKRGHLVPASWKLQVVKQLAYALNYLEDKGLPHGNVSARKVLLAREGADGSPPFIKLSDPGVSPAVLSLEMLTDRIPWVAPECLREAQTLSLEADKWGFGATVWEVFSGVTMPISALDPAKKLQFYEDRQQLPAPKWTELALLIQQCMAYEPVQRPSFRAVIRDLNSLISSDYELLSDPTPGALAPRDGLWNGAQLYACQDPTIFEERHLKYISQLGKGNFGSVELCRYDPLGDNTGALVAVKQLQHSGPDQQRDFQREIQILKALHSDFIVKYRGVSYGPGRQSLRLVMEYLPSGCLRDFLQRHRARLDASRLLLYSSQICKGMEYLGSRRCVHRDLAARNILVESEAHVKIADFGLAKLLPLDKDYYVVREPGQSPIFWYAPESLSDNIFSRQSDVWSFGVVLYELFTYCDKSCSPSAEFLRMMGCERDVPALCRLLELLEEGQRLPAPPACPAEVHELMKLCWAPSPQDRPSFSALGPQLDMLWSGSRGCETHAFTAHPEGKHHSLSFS

As for `COc1ccc(CNC[C@H]2CC[C@H](c3nnn4cnc5[nH]ccc5c34)CC2)cc1` [compound 270, 1-[trans-4-(7H-pyrrolo[3,2-e][1,2,3]triazolo[1,5-c]pyrimidin-1-yl)cyclohexyl]-N-(4-methoxybenzyl)methanamine], the IC50 – broadly, the concentration that inhibits the measured activity by half – came to 0.012 µM in assay [1], 0.0048 µM in assay [2], 0.1 µM in assay [3] and 0.75 µM in assay [4].
In the same order, the values of `OC1CCN(C[C@H]2CC[C@H](c3nnn4cnc5[nH]ccc5c34)CC2)CC1` [compound 271, 1-{[trans-4-(7H-pyrrolo[3,2-e][1,2,3]triazolo[1,5-c]pyrimidin-1-yl)cyclohexyl]methyl}piperidin-4-ol] are 0.02 µM, 0.43 µM, 0.063 µM and over 1 µM.
In the same order, the values of `OCCNC[C@H]1CC[C@H](c2nnn3cnc4[nH]ccc4c23)CC1` [compound 272, 2-({[trans-4-(7H-pyrrolo[3,2-e][1,2,3]triazolo[1,5-c]pyrimidin-1-yl)cyclohexyl]methyl}amino)ethanol] are 0.0035 µM, 0.094 µM, 0.053 µM and 0.43 µM.
In the same order, the values of `O=C1COc2cc(NC[C@H]3CC[C@H](c4nnn5cnc6[nH]ccc6c45)CC3)ccc2N1` [compound 273, 7-({[trans-4-(7H-pyrrolo[3,2-e][1,2,3]triazolo[1,5-c]pyrimidin-1-yl)cyclohexyl]methyl}amino)-2H-benzo[b][1,4]oxazin-3(4H)-one] are 0.0046 µM, 0.24 µM, 0.021 µM and 0.57 µM.
Turning to `O=C1COc2ccc(NC[C@H]3CC[C@H](c4nnn5cnc6[nH]ccc6c45)CC3)cc2N1` [compound 274, 6-({[trans-4-(7H-pyrrolo[3,2-e][1,2,3]triazolo[1,5-c]pyrimidin-1-yl)cyclohexyl]methyl}amino)-2H-benzo[b][1,4]oxazin-3(4H)-one], the IC50 in assay [1] is 0.0035 µM; in assay [2] it was 0.2 µM; in assay [3] it was 0.029 µM; in assay [4] it was over 1 µM.
In the same order, the values of `FC1(F)Oc2ccc(NC[C@H]3CC[C@H](c4nnn5cnc6[nH]ccc6c45)CC3)cc2O1` [compound 275, N-{[trans-4-(7H-pyrrolo[3,2-e][1,2,3]triazolo[1,5-c]pyrimidin-1-yl)cyclohexyl]methyl}-2,2-difluorobenzo[d][1,3]dioxol-5-amine] are 0.0067 µM, 0.52 µM, 0.065 µM and 0.85 µM.
The matching figures for `O=C(O)C1CN(C[C@H]2CC[C@H](c3nnn4cnc5[nH]ccc5c34)CC2)C1` [compound 278, 1-{[trans-4-(7H-pyrrolo[3,2-e][1,2,3]triazolo[1,5-c]pyrimidin-1-yl)cyclohexyl]methyl}azetidine-3-carboxylic acid]: 0.0043 µM, 0.4 µM, 0.034 µM and 0.45 µM.
The matching figures for `O=C1OCCC1NC[C@H]1CC[C@H](c2nnn3cnc4[nH]ccc4c23)CC1` (stereo partly drawn) [compound 279, 3-({[trans-4-(7H-pyrrolo[3,2-e][1,2,3]triazolo[1,5-c]pyrimidin-1-yl)cyclohexyl]methyl}amino)dihydrofuran-2(3H)-one]: 0.0074 µM, 0.2 µM, 0.044 µM and 0.53 µM.
As for `c1cc2c(ncn3nnc([C@H]4CC[C@H](CNC5CC5)CC4)c23)[nH]1` [compound 280, N-{[trans-4-(7H-pyrrolo[3,2-e][1,2,3]triazolo[1,5-c]pyrimidin-1-yl)cyclohexyl]methyl}cyclopropanamine], the IC50 came to 0.0019 µM in assay [1], 0.1 µM in assay [2], 0.062 µM in assay [3] and 0.68 µM in assay [4].
In the same order, the values of `N#CC1CN(C[C@H]2CC[C@H](c3nnn4cnc5[nH]ccc5c34)CC2)C1` [compound 281, 1-{[trans-4-(7H-pyrrolo[3,2-e][1,2,3]triazolo[1,5-c]pyrimidin-1-yl)cyclohexyl]methyl}azetidine-3-carbonitrile] are 0.0077 µM, 0.48 µM, 0.05 µM and 0.15 µM.
In the same order, the values of `N#Cc1ccc(CCNC[C@H]2CC[C@H](c3nnn4cnc5[nH]ccc5c34)CC2)cc1` [compound 282, 4-[2-({[trans-4-(7H-pyrrolo[3,2-e][1,2,3]triazolo[1,5-c]pyrimidin-1-yl)cyclohexyl]methyl}amino)ethyl]benzonitrile] are 0.0052 µM, 0.08 µM, 0.07 µM and 0.39 µM.
For the compound `c1cc2c(ncn3nnc([C@H]4CC[C@H](CNC5CCC5)CC4)c23)[nH]1` [compound 283, N-{[trans-4-(7H-pyrrolo[3,2-e][1,2,3]triazolo[1,5-c]pyrimidin-1-yl)cyclohexyl]methyl}cyclobutanamine], the IC50 in assay [1] turned out to be 0.014 µM; in assay [2] it was 0.23 µM; in assay [3] it was 0.11 µM; in assay [4], 0.9 µM.
The matching figures for `c1cc2c(ncn3nnc([C@H]4CC[C@H](CNC5CCCC5)CC4)c23)[nH]1` [compound 284, N-{[trans-4-(7H-pyrrolo[3,2-e][1,2,3]triazolo[1,5-c]pyrimidin-1-yl)cyclohexyl]methyl}cyclopentanamine]: 0.017 µM, 0.32 µM, 0.15 µM and over 1 µM.
In the same order, the values of `c1cc2c(ncn3nnc([C@H]4CC[C@H](CNCC5CC5)CC4)c23)[nH]1` [compound 285, 1-[trans-4-(7H-pyrrolo[3,2-e][1,2,3]triazolo[1,5-c]pyrimidin-1-yl)cyclohexyl]-N-(cyclopropylmethyl)methanamine] are 0.0091 µM, 0.068 µM, 0.12 µM and 0.61 µM.
In the same order, the values of `c1cc2c(ncn3nnc([C@H]4CC[C@H](CN5CCC5)CC4)c23)[nH]1` [compound 286, 1-[trans-4-(azetidin-1-ylmethyl)cyclohexyl]-7H-pyrrolo[3,2-e][1,2,3]triazolo[1,5-c]pyrimidine] are 0.0059 µM, 0.23 µM, 0.035 µM and 0.57 µM.
As to `c1cc2c(ncn3nnc([C@H]4CC[C@H](CN5CCCC5)CC4)c23)[nH]1` [compound 287, 1-[trans-4-(pyrrolidin-1-ylmethyl)cyclohexyl]-7H-pyrrolo[3,2-e][1,2,3]triazolo[1,5-c]pyrimidine], the concentration for half-maximal inhibition (IC50) in assay [1] was 0.0065 µM; in assay [2], 0.33 µM; in assay [3] it was 0.077 µM; in assay [4], over 1 µM.
The matching figures for `CC1CC1NC[C@H]1CC[C@H](c2nnn3cnc4[nH]ccc4c23)CC1` (stereo partly drawn) [compound 291, N-{[trans-4-(7H-pyrrolo[3,2-e][1,2,3]triazolo[1,5-c]pyrimidin-1-yl)cyclohexyl]methyl}-2-methylcyclopropanamine]: 0.0053 µM, 0.14 µM, 0.1 µM and 0.67 µM.
The matching figures for `FC(F)(F)C1(NC[C@H]2CC[C@H](c3nnn4cnc5[nH]ccc5c34)CC2)CC1` [compound 292, N-{[trans-4-(7H-pyrrolo[3,2-e][1,2,3]triazolo[1,5-c]pyrimidin-1-yl)cyclohexyl]methyl}-1-(trifluoromethyl)cyclopropanamine]: 0.0027 µM, 0.27 µM, 0.017 µM and 0.39 µM.
The matching figures for `COCC1(NC[C@H]2CC[C@H](c3nnn4cnc5[nH]ccc5c34)CC2)CC1` [compound 293, N-{[trans-4-(7H-pyrrolo[3,2-e][1,2,3]triazolo[1,5-c]pyrimidin-1-yl)cyclohexyl]methyl}-1-(methoxymethyl)cyclopropanamine]: 0.024 µM, 0.31 µM, 0.1 µM and 0.94 µM.
In the case of `c1cc2c(ncn3nnc([C@H]4CC[C@H](CNC5COC5)CC4)c23)[nH]1` [compound 294, N-{[trans-4-(7H-pyrrolo[3,2-e][1,2,3]triazolo[1,5-c]pyrimidin-1-yl)cyclohexyl]methyl}oxetan-3-amine], the half-inhibitory concentration (IC50) in assay [1] was found to be 0.022 µM; in assay [2] it was 0.34 µM; in assay [3], 0.12 µM; in assay [4], 0.48 µM.
Take `CC1(NC[C@H]2CC[C@H](c3nnn4cnc5[nH]ccc5c34)CC2)CC1` [compound 295, N-{[trans-4-(7H-pyrrolo[3,2-e][1,2,3]triazolo[1,5-c]pyrimidin-1-yl)cyclohexyl]methyl}-1-methylcyclopropanamine]: the half-inhibitory concentration (IC50) in assay [1] was determined as 0.0069 µM; in assay [2] it was 0.33 µM; in assay [3] it was 0.064 µM; in assay [4], 0.84 µM.
The matching figures for `CN(C)C[C@H]1CC[C@H](c2nnn3cnc4[nH]ccc4c23)CC1` [compound 296, 1-[trans-4-(7H-pyrrolo[3,2-e][1,2,3]triazolo[1,5-c]pyrimidin-1-yl)cyclohexyl]-N,N-dimethylmethanamine]: 0.0038 µM, 0.19 µM, 0.065 µM and 0.73 µM.
The matching figures for `CN(CCO)C[C@H]1CC[C@H](c2nnn3cnc4[nH]ccc4c23)CC1` [compound 297, 2-({[trans-4-(7H-pyrrolo[3,2-e][1,2,3]triazolo[1,5-c]pyrimidin-1-yl)cyclohexyl]methyl}(methyl)amino)ethanol]: 0.0095 µM, 0.32 µM, 0.1 µM and over 1 µM.
The matching figures for `OCCN(CCO)C[C@H]1CC[C@H](c2nnn3cnc4[nH]ccc4c23)CC1` [compound 298, 2,2′-({[trans-4-(7H-pyrrolo[3,2-e][1,2,3]triazolo[1,5-c]pyrimidin-1-yl)cyclohexyl]methyl}azanediyl)diethanol]: 0.019 µM, 0.59 µM, 0.11 µM and over 1 µM.

Values taken from patent publication US9216999B2, “Substituted pyrrolo[2,3-h][1,6]naphthyridines and compositions thereof as JAK inhibitors” (priority 2011, dated 2015).
